According to the NIST ThermoML archive (doi:10.1021/acs.jced.8b00524):
Numbers after ± are expanded uncertainties.

Test: xn = mol fraction of the nth substance listed
Conditions: 100 kPa, Liquid; for mass density: Vibrating tube method; for viscosity: Concentric cylinders viscometry

CCCCCCCO [heptan-1-ol] + CCCCOC(C)=O
Conditions | mass density, 308.15 K [kg/m3] | mass density, 313.15 K [kg/m3] | mass density, 318.15 K [kg/m3] | mass density, 323.15 K [kg/m3] | viscosity, 313.15 K [mPa·s] | viscosity, 318.15 K [mPa·s] | viscosity, 323.15 K [mPa·s]
x2 = 0 | 811.6 ± 10 | 808 ± 10 | 804.4 ± 10 | 800.7 ± 10 | 3.71 ± 0.19 | 3.21 ± 0.16 | 2.79 ± 0.14
x2 = 0.0819 | 815 ± 10 | 811 ± 10 | 807.2 ± 10 | 803.2 ± 10 | 3.19 ± 0.16 | 2.75 ± 0.14 | 2.4 ± 0.12
x2 = 0.1604 | 818.4 ± 10 | 814.2 ± 10 | 810.1 ± 10 | 806 ± 10 | 2.78 ± 0.14 | 2.4 ± 0.12 | 2.09 ± 0.11
x2 = 0.2399 | 822.1 ± 10 | 817.6 ± 10 | 813.3 ± 10 | 808.9 ± 10 | 2.42 ± 0.12 | 2.08 ± 0.1 | 1.81 ± 0.09
x2 = 0.3497 | 827.4 ± 10 | 822.7 ± 10 | 818.1 ± 10 | 813.5 ± 10 | 2.01 ± 0.1 | 1.73 ± 0.09 | 1.5 ± 0.08
x2 = 0.4399 | 832.1 ± 10 | 827.1 ± 10 | 822.3 ± 10 | 817.6 ± 10 | 1.74 ± 0.09 | 1.49 ± 0.08 | 1.3 ± 0.07
x2 = 0.5743 | 839.3 ± 10 | 834.1 ± 10 | 829.2 ± 10 | 824.2 ± 10 | 1.4 ± 0.07 | 1.22 ± 0.06 | 1.06 ± 0.05
x2 = 0.6496 | 843.6 ± 10 | 838.3 ± 10 | 833.3 ± 10 | 828.2 ± 10 | 1.23 ± 0.06 | 1.09 ± 0.06 | 0.95 ± 0.05
x2 = 0.7391 | 848.9 ± 10 | 843.5 ± 10 | 838.4 ± 10 | 833.2 ± 10 | 1.06 ± 0.05 | 0.94 ± 0.05 | 0.83 ± 0.04
x2 = 0.8491 | 855.7 ± 10 | 850.3 ± 10 | 845.1 ± 10 | 839.9 ± 10 | 0.85 ± 0.04 | 0.77 ± 0.04 | 0.7 ± 0.04
x2 = 0.9385 | 861.4 ± 10 | 856 ± 10 | 850.9 ± 10 | 845.7 ± 10 | 0.67 ± 0.03 | 0.62 ± 0.03 | 0.58 ± 0.03
